{"source": "patent US9694016B2", "about": "(Novartis AG, priority 2013, dated 2017)"}
{"biological_target": "b-Raf (V600E) (Homo sapiens (Human), UniProt P15056, V600E)", "sequence (P15056 whole entry V600E)": "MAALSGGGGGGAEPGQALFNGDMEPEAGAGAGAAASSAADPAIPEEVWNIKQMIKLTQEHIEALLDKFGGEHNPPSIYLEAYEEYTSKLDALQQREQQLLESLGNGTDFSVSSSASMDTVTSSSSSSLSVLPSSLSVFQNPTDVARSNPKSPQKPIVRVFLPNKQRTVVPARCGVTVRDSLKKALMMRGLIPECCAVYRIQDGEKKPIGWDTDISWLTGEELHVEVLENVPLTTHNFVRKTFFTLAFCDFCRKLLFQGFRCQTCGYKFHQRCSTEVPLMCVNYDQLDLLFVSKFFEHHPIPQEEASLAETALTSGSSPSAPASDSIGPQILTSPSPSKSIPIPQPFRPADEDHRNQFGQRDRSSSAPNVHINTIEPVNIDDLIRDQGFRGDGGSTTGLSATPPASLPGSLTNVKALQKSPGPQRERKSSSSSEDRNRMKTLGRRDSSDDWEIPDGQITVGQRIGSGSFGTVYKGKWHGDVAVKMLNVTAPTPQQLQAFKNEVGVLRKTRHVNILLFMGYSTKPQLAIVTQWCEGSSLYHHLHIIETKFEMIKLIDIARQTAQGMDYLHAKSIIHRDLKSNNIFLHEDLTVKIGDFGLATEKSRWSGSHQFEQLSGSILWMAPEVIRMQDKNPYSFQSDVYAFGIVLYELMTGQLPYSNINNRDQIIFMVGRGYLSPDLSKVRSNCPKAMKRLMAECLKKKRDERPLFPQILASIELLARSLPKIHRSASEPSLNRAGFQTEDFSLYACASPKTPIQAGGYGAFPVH", "conditions": "read-out: b-Raf IC-50; AlphaScreen, 60 min pre-incubation, 3 hours reaction", "units": {"IC50": "nM"}}
{"smiles": "Cc1ccc(NC(=O)c2cccc(C(F)(F)F)c2)cc1-c1cc(N2CC3CC(C2)O3)c(=O)n(C)c1", "note": "[Example 464, N-(3-(5-(6-oxa-3-azabicyclo[3.1.1]heptan-3-yl)-1-methyl-6-oxo-1,6-dihydropyridin-3-yl)-4-methylphenyl)-3-(trifluoromethyl)benzamide]", "IC50": 16.8}
{"smiles": "Cc1ccc(NC(=O)c2ccnc(C(C)(C)C#N)c2)cc1-c1cc(N2CC3CC(C2)O3)c(=O)n(C)c1", "note": "[Example 465, N-(3-(5-(6-oxa-3-azabicyclo[3.1.1]heptan-3-yl)-1-methyl-6-oxo-1,6-dihydropyridin-3-yl)-4-methylphenyl)-2-(2-cyanopropan-2-yl)isonicotinamide]", "IC50": 100}
{"smiles": "Cc1ccc(NC(=O)c2cc(CN)cc(C(F)(F)F)c2)cc1-c1cc(N2CCOCC2)c(=O)n(C)c1", "note": "[Example 470, 3-(aminomethyl)-N-(4-methyl-3-(1-methyl-5-morpholino-6-oxo-1,6-dihydropyridin-3-yl)phenyl)-5-(trifluoromethyl)benzamide]", "IC50": 4.5}
{"smiles": "Cc1ccc(NC(=O)c2ccnc(C(C)(C)C)c2)cc1-c1cc(N2CCOCC2)n(C)c(=O)c1", "note": "[Example 472, 2-(tert-butyl)-N-(4-methyl-3-(1-methyl-6-morpholino-2-oxo-1,2-dihydropyridin-4-yl)phenyl)isonicotinamide]", "IC50": 2.1}
{"smiles": "Cc1ccc(NC(=O)c2ccccc2)cc1-c1cc(N2CCOCC2)n(C)c(=O)c1", "note": "[Example 473, N-(4-methyl-3-(1-methyl-6-morpholino-2-oxo-1,2-dihydropyridin-4-yl)phenyl)benzamide]", "IC50": 12.1}
{"smiles": "Cc1ccc(NC(=O)c2ccnc(S(C)(=O)=O)c2)cc1-c1cc(N2CCOCC2)n(C)c(=O)c1", "note": "[Example 474, N-(4-methyl-3-(1-methyl-6-morpholino-2-oxo-1,2-dihydropyridin-4-yl)phenyl)-2-(methylsulfonyl)isonicotinamide]", "IC50": 2.2}
{"smiles": "CCC(F)(F)c1cc(C(=O)Nc2ccc(C)c(-c3cc(N4CCOCC4)n(C)c(=O)c3)c2)ccn1", "note": "[Example 475, 2-(1,1-difluoropropyl)-N-(4-methyl-3-(1-methyl-6-morpholino-2-oxo-1,2-dihydropyridin-4-yl)phenyl)isonicotinamide]", "IC50": 0.8}
{"smiles": "CCc1cc(C(=O)Nc2ccc(C)c(-c3cc(N4CCOCC4)n(C)c(=O)c3)c2)ccn1", "note": "[Example 476, 2-ethyl-N-(4-methyl-3-(1-methyl-6-morpholino-2-oxo-1,2-dihydropyridin-4-yl)phenyl)isonicotinamide]", "IC50": 0.6}
{"smiles": "Cc1ccc(NC(=O)c2ccnc(C3CC3)c2)cc1-c1cc(N2CCOCC2)n(C)c(=O)c1", "note": "[Example 477, 2-cyclopropyl-N-(4-methyl-3-(1-methyl-6-morpholino-2-oxo-1,2-dihydropyridin-4-yl)phenyl)isonicotinamide]", "IC50": 0.4}
{"smiles": "Cc1ccc(NC(=O)c2ccnc(C3COC3)c2)cc1-c1cc(N2CCOCC2)n(C)c(=O)c1", "note": "[Example 478, N-(4-methyl-3-(1-methyl-6-morpholino-2-oxo-1,2-dihydropyridin-4-yl)phenyl)-2-(oxetan-3-yl)isonicotinamide]", "IC50": 2.5}
{"smiles": "Cc1ccc(NC(=O)c2ccnc(C(C)(C)F)c2)cc1-c1cc(N2CCOCC2)n(C)c(=O)c1", "note": "[Example 479, 2-(2-fluoropropan-2-yl)-N-(4-methyl-3-(1-methyl-6-morpholino-2-oxo-1,2-dihydropyridin-4-yl)phenyl)isonicotinamide]", "IC50": 1.8}
{"smiles": "Cc1ccc(NC(=O)c2ccnc(C3(C#N)CC3)c2)cc1-c1cc(N2CCOCC2)n(C)c(=O)c1", "note": "[Example 480, 2-(1-cyanocyclopropyl)-N-(4-methyl-3-(1-methyl-6-morpholino-2-oxo-1,2-dihydropyridin-4-yl)phenyl)isonicotinamide]", "IC50": 0.6}
{"smiles": "CCn1cc(C(=O)Nc2ccc(C)c(-c3cc(N4CCOCC4)n(C)c(=O)c3)c2)cc(C(F)(F)F)c1=O", "note": "[Example 481, 1-ethyl-N-(4-methyl-3-(1-methyl-6-morpholino-2-oxo-1,2-dihydropyridin-4-yl)phenyl)-6-oxo-5-(trifluoromethyl)-1,6-dihydropyridine-3-carboxamide]", "IC50": 1.2}
{"smiles": "Cc1ccc(NC(=O)c2ccnc(C(C)C)c2)cc1-c1cc(N2CCOCC2)n(C)c(=O)c1", "note": "[Example 482, 2-isopropyl-N-(4-methyl-3-(1-methyl-6-morpholino-2-oxo-1,2-dihydropyridin-4-yl)phenyl)isonicotinamide]", "IC50": 0.6}
{"smiles": "Cc1ccc(NC(=O)c2ccnc(C(C)(C)O)c2)cc1-c1cc(N2CCOCC2)n(C)c(=O)c1", "note": "[Example 483, 2-(2-hydroxypropan-2-yl)-N-(4-methyl-3-(1-methyl-6-morpholino-2-oxo-1,2-dihydropyridin-4-yl)phenyl)isonicotinamide]", "IC50": 3.5}
{"smiles": "Cc1ccc(NC(=O)c2cccc(C(F)F)c2)cc1-c1cc(N2CCOCC2)n(C)c(=O)c1", "note": "[Example 484, 3-(difluoromethyl)-N-(4-methyl-3-(1-methyl-6-morpholino-2-oxo-1,2-dihydropyridin-4-yl)phenyl)benzamide]", "IC50": 0.4}
{"smiles": "Cc1ccc(NC(=O)c2ccnc(C(F)(F)F)c2)cc1-c1cc(N2CCOCC2)n(C)c(=O)c1", "note": "[Example 485, N-(4-methyl-3-(1-methyl-6-morpholino-2-oxo-1,2-dihydropyridin-4-yl)phenyl)-2-(trifluoromethyl)isonicotinamide]", "IC50": 1.1}
{"smiles": "Cc1ccc(NC(=O)c2ccnc(C(F)F)c2)cc1-c1cc(N2CCOCC2)n(C)c(=O)c1", "note": "[Example 486, 2-(difluoromethyl)-N-(4-methyl-3-(1-methyl-6-morpholino-2-oxo-1,2-dihydropyridin-4-yl)phenyl)isonicotinamide]", "IC50": 1.1}
{"smiles": "Cc1ccc(NC(=O)c2ccnc(C(C)(C)C#N)c2)cc1-c1cc(N2CCOCC2)n(C)c(=O)c1", "note": "[Example 487, 2-(2-cyanopropan-2-yl)-N-(4-methyl-3-(1-methyl-6-morpholino-2-oxo-1,2-dihydropyridin-4-yl)phenyl)isonicotinamide]", "IC50": 2.8}
{"smiles": "Cc1ccc(NC(=O)c2cccc(S(C)(=O)=O)c2)cc1-c1cc(N2CCOCC2)n(C)c(=O)c1", "note": "[Example 488, N-(4-methyl-3-(1-methyl-6-morpholino-2-oxo-1,2-dihydropyridin-4-yl)phenyl)-3-(methylsulfonyl)benzamide]", "IC50": 1.9}
{"smiles": "Cc1ccc(NC(=O)c2cnnc(C(C)(C)C#N)c2)cc1-c1cc(N2CCOCC2)n(C)c(=O)c1", "note": "[Example 489, 6-(2-cyanopropan-2-yl)-N-(4-methyl-3-(1-methyl-6-morpholino-2-oxo-1,2-dihydropyridin-4-yl)phenyl)pyridazine-4-carboxamide]", "IC50": 2.4}
{"smiles": "CCN1CCN(c2cc(C(=O)Nc3ccc(C)c(-c4cc(N5CCOCC5)n(C)c(=O)c4)c3)cc(C(F)(F)F)c2)CC1", "note": "[Example 490, 3-(4-ethylpiperazin-1-yl)-N-(4-methyl-3-(1-methyl-6-morpholino-2-oxo-1,2-dihydropyridin-4-yl)phenyl)-5-(trifluoromethyl)benzamide]", "IC50": 2.5}
{"smiles": "Cc1ccc(NC(=O)c2cc(F)cc(N3CCOCC3)c2)cc1-c1cc(N2CCOCC2)n(C)c(=O)c1", "note": "[Example 491, 3-fluoro-N-(4-methyl-3-(1-methyl-6-morpholino-2-oxo-1,2-dihydropyridin-4-yl)phenyl)-5-morpholinobenzamide]", "IC50": 2.1}
{"smiles": "Cc1ccc(NC(=O)c2cccc(C3COC3)c2)cc1-c1cc(N2CCOCC2)n(C)c(=O)c1", "note": "[Example 492, N-(4-methyl-3-(1-methyl-6-morpholino-2-oxo-1,2-dihydropyridin-4-yl)phenyl)-3-(oxetan-3-yl)benzamide]", "IC50": 3}
{"smiles": "Cc1ccc(NC(=O)c2cccc(C(C)(C)S(C)(=O)=O)c2)cc1-c1cc(N2CCOCC2)n(C)c(=O)c1", "note": "[Example 494, N-(4-methyl-3-(1-methyl-6-morpholino-2-oxo-1,2-dihydropyridin-4-yl)phenyl)-3-(2-(methylsulfonyl)propan-2-yl)benzamide]", "IC50": 16.8}
{"smiles": "Cc1ccc(NC(=O)c2cnnc(C(F)(F)F)c2)cc1-c1cc(N2CCOCC2)n(C)c(=O)c1", "note": "[Example 495, N-(4-methyl-3-(1-methyl-6-morpholino-2-oxo-1,2-dihydropyridin-4-yl)phenyl)-6-(trifluoromethyl)pyridazine-4-carboxamide]", "IC50": 4.5}
{"smiles": "Cc1ccc(NC(=O)c2cnnc(C3CC3)c2)cc1-c1cc(N2CCOCC2)n(C)c(=O)c1", "note": "[Example 496, 6-cyclopropyl-N-(4-methyl-3-(1-methyl-6-morpholino-2-oxo-1,2-dihydropyridin-4-yl)phenyl)pyridazine-4-carboxamide]", "IC50": 0.9}
{"smiles": "Cc1ccc(NC(=O)c2cc(CN(C)C)cc(C(F)(F)F)c2)cc1-c1cc(N2CCOCC2)n(C)c(=O)c1", "note": "[Example 497, 3-((dimethylamino)methyl)-N-(4-methyl-3-(1-methyl-6-morpholino-2-oxo-1,2-dihydropyridin-4-yl)phenyl)-5-(trifluoromethyl)benzamide]", "IC50": 2.8}
{"smiles": "Cc1ncc(NC(=O)c2ccnc(C(C)(C)C#N)c2)cc1-c1cc(N2CCOCC2)n(C)c(=O)c1", "note": "[Example 499, 2-(2-cyanopropan-2-yl)-N-(1′,2-dimethyl-6′-morpholino-6′-oxo-1′,2′-dihydro-[3,4′-bipyridin]-5-yl)isonicotinamide]", "IC50": 21.9}
{"smiles": "Cc1ncc(NC(=O)c2ccnc(C(F)(F)F)c2)cc1-c1cc(N2CCOCC2)n(C)c(=O)c1", "note": "[Example 500]", "IC50": 5.6}
{"smiles": "Cc1ncc(NC(=O)c2ccnc(C(C)(C)O)c2)cc1-c1cc(N2CCOCC2)n(C)c(=O)c1", "note": "[Example 501, N-(1′,2-dimethyl-6′-morpholino-2′-oxo-1′,2′-dihydro-[3,4′-bipyridin]-5-yl)-2-(2-hydroxypropan-2-yl)isonicotinamide]", "IC50": 32.2}
{"smiles": "CCn1cc(C(=O)Nc2cnc(C)c(-c3cc(N4CCOCC4)n(C)c(=O)c3)c2)cc(C(F)(F)F)c1=O", "note": "[Example 502, N-(1′,2-dimethyl-6′-morpholino-2′-oxo-1′,2′-dihydro-[3,4′-bipyridin]-5-yl)-1-ethyl-6-oxo-5-(trifluoromethyl)-1,6-dihydropyridine-3-carboxamide]", "IC50": 20}
{"smiles": "Cc1ncc(NC(=O)c2ccccc2)cc1-c1cc(N2CCOCC2)n(C)c(=O)c1", "note": "[Example 503, N-(1′,2-dimethyl-6′-morpholino-2′-oxo-1′,2′-dihydro-[3,4′-bipyridin]-5-yl)benzamide]", "IC50": 200}
